pIC50: −log10 of the molar value.
How the values were obtained:
[1] = test system: ARPE-19 cells stably expressing XBP1 (a.a. 1-376); experiment: Cellular XBP1 splicing assay (NanoLuc luciferase, thapsigargin); assay type: cell-based; details: thapsigargin 150 nM
How it was run: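 ARPE-19 cells carrying an XBP1(1-376)-NanoLuc splicing reporter were pretreated with compound (10-point ½-log series, 0.117% DMSO) for 30 min, then stressed with 150 nM thapsigargin for 4 h at 37° C. Luminescence was read, and IC50 values came from sigmoidal fits of percent inhibition of control.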

IRE1α = target: T1, IRE1α (Homo sapiens, UniProt O75460); experiment: Biochemical assay: inhibition of RNase activity of IRE1α; details: enzyme 0.325 nM, substrate 100 nM, 20 minutes
T1 construct: purchased Signal Chem E31-11G
T1 sequence (O75460 468-977 limits assumed): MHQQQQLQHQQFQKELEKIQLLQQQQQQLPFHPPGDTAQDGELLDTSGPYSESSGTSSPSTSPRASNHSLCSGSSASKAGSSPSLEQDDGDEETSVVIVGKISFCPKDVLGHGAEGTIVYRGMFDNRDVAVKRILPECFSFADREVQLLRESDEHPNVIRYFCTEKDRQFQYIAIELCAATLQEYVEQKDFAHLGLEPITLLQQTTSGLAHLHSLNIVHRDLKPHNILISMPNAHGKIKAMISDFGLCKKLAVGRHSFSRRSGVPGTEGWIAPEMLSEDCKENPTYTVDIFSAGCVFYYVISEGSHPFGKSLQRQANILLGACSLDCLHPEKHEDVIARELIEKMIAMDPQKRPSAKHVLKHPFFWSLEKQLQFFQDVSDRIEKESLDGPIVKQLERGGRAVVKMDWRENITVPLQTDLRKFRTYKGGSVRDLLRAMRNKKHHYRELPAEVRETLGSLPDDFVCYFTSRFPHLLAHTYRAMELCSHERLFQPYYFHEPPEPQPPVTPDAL
Method: Biochemical Assay: Inhibition of RNase Activity of IRE1α
The RNase reactions were performed in 384 well black ProxiPlate-384 Plus plates (PERKIN Elmer) using 50 mM Tris assay buffer with 0.5 mM MgCl2, 10 mM KCl, 0.03% Tween, 2 mM DTT and 1% DMSO. Test compounds were prepared on the day of assay and dispensed using D300 digital dispenser as a 10-point ½ log dilution series in duplicate, normalized to a final DMSO concentration of […]. Test compounds were pre-incubated for 30 min at room temperature with IRE1α kinase (E31-11G from Signal Chem) in 2.5 μL of assay buffer. Then 2.5 μl of assay buffer containing substrate (5′ Alexa Fluor 647-rCrArU rGrUrC rCrGrC rArGrC rGrCrArUrG-Iowa Black RQ quencher 3′) added, giving a final concentration of enzyme of 0.325 nM and of substrate of 100 nM. After 20 minutes incubation at room temperature the reactions were stopped by added 5 μL of 5M urea, incubated at room temperature for 10 minutes and fluorescence measured on a plate reader (EnVision, PerkinElmer). IC50 values calculated by fitting a sigmoidal curve to percent inhibition of control versus compound concentration.

| pIC50 ([1]; 4 hour) | pIC50 (IRE1α) | pIC50 ([1]; Homo sapiens, ARPE-19, 4 h) | SMILES |
| --- | --- | --- | --- |
| 7.00 | 7.22 |  | CCn1nc(-c2ccc(NS(=O)(=O)c3ccccc3F)c(F)c2)c2c(N)ncc(C3=CCC(NC4COC4)CC3)c21 (single isomer, unassigned) [Compound B33, N-(4-(4-amino-1-ethyl-7-(4-(oxetan-3-ylamino)cyclohex-1-en-1-yl)-1H-pyrazolo[4,3-c]pyridin-3-yl)-2-fluorophenyl)-2-fluorobenzenesulfonamide] |
| 6.40 | 7.00 |  | CCn1nc(-c2ccc(NS(=O)(=O)c3ccccc3F)c(F)c2)c2c(N)ncc(C3=CCC(NC4COC4)CC3)c21 (single isomer, unassigned) [Compound B34, N-(4-(4-amino-1-ethyl-7-(4-(oxetan-3-ylamino)cyclohex-1-en-1-yl)-1H-pyrazolo[4,3-c]pyridin-3-yl)-2-fluorophenyl)-2-fluorobenzenesulfonamide] |
| 7.28 | 7.85 |  | CCn1nc(-c2ccc(NS(=O)(=O)c3cc(C)ccc3F)c(F)c2)c2c(N)ncc(C3=CCC(NC4COC4)CC3)c21 (single isomer, unassigned) [Compound B35, N-(4-(4-amino-1-ethyl-7-(4-(oxetan-3-ylamino)cyclohex-1-en-1-yl)-1H-pyrazolo[4,3-c]pyridin-3-yl)-2-fluorophenyl)-2-fluoro-5-methylbenzenesulfonamide] |
| 6.68 | 7.29 |  | CCn1nc(-c2ccc(NS(=O)(=O)c3cc(C)ccc3F)c(F)c2)c2c(N)ncc(C3=CCC(NC4COC4)CC3)c21 (single isomer, unassigned) [Compound B36, N-(4-(4-amino-1-ethyl-7-(4-(oxetan-3-ylamino)cyclohex-1-en-1-yl)-1H-pyrazolo[4,3-c]pyridin-3-yl)-2-fluorophenyl)-2-fluoro-5-methylbenzenesulfonamide] |
| 7.01 | 8.25 |  | CCn1nc(-c2ccc(NS(=O)(=O)c3cc(Cl)ccc3F)c(F)c2)c2c(N)ncc(C3=CCC(NC4COC4)CC3)c21 (single isomer, unassigned) [Compound B38, N-(4-(4-amino-1-ethyl-7-(4-(oxetan-3-ylamino)cyclohex-1-en-1-yl)-1H-pyrazolo[4,3-c]pyridin-3-yl)-2-fluorophenyl)-5-chloro-2-fluorobenzenesulfonamide] |
| 7.17 | 7.85 |  | CC(CF)NC1CC=C(c2cnc(N)c3c(-c4ccc(NS(=O)(=O)c5ccccc5Cl)c(F)c4)nn(C(C)C)c23)CC1 (single isomer, unassigned) [Compound B40, N-(4-(4-amino-7-(4-((1-fluoropropan-2-yl)amino)cyclohex-1-en-1-yl)-1-isopropyl-1H-pyrazolo[4,3-c]pyridin-3-yl)-2-fluorophenyl)-2-chlorobenzenesulfonamide] |
| 8.00 | 8.21 |  | CC(CF)NC1CC=C(c2cnc(N)c3c(-c4ccc(NS(=O)(=O)c5ccccc5Cl)c(F)c4)nn(C(C)C)c23)CC1 (single isomer, unassigned) [Compound B41, N-(4-(4-amino-7-(4-((1-fluoropropan-2-yl)amino)cyclohex-1-en-1-yl)-1-isopropyl-1H-pyrazolo[4,3-c]pyridin-3-yl)-2-fluorophenyl)-2-chlorobenzenesulfonamide] |
| 7.74 | 8.77 |  | CC(F)CNC1CC=C(c2cnc(N)c3c(-c4ccc(NS(=O)(=O)Cc5ccccc5Cl)c(F)c4)nn(C(C)C)c23)CC1 (single isomer, unassigned) [Compound B42, N-(4-(4-amino-7-(4-((2-fluoropropyl)amino)cyclohex-1-en-1-yl)-1-isopropyl-1H-pyrazolo[4,3-c]pyridin-3-yl)-2-fluorophenyl)-1-(2-chlorophenyl)methanesulfonamide] |
| 8.29 | 9.30 |  | CC(F)CNC1CC=C(c2cnc(N)c3c(-c4ccc(NS(=O)(=O)Cc5ccccc5Cl)c(F)c4)nn(C(C)C)c23)CC1 (single isomer, unassigned) [Compound B43, N-(4-(4-amino-7-(4-((2-fluoropropyl)amino)cyclohex-1-en-1-yl)-1-isopropyl-1H-pyrazolo[4,3-c]pyridin-3-yl)-2-fluorophenyl)-1-(2-chlorophenyl)methanesulfonamide] |
| 8.00 | 8.80 |  | CC(CF)NC1CC=C(c2cnc(N)c3c(-c4ccc(NS(=O)(=O)Cc5ccccc5Cl)c(F)c4)nn(C(C)C)c23)CC1 (single isomer, unassigned) [Compound B44, N-(4-(4-amino-7-(4-((1-fluoropropan-2-yl)amino)cyclohex-1-en-1-yl)-1-isopropyl-1H-pyrazolo[4,3-c]pyridin-3-yl)-2-fluorophenyl)-1-(2-chlorophenyl)methanesulfonamide] |
| 7.33 | 8.47 |  | CC(CF)NC1CC=C(c2cnc(N)c3c(-c4ccc(NS(=O)(=O)Cc5ccccc5Cl)c(F)c4)nn(C(C)C)c23)CC1 (single isomer, unassigned) [Compound B45, N-(4-(4-amino-7-(4-((1-fluoropropan-2-yl)amino)cyclohex-1-en-1-yl)-14sopropyl-1H-pyrazolo[4,3-c]pyridin-3-yl)-2-fluorophenyl)-1-(2-chlorophenyl)methanesulfonamide] |
|  | 8.33 | 7.66 | CC(F)CNC1CC=C(c2cnc(N)c3c(-c4ccc(NS(=O)(=O)c5ccccc5Cl)c(F)c4)nn(C(C)C)c23)CC1 (single isomer, unassigned) [Compound B46, N-(4-(4-amino-7-(4-((2-fluoropropyl)amino)cyclohex-1-en-1-yl)-1-isopropyl-1H-pyrazolo[4,3-c]pyridin-3-yl)-2-fluorophenyl)-2-chlorobenzenesulfonamide] |
| 7.77 | 8.35 |  | CC(F)CNC1CC=C(c2cnc(N)c3c(-c4ccc(NS(=O)(=O)c5ccccc5Cl)c(F)c4)nn(C(C)C)c23)CC1 (single isomer, unassigned) [Compound B47, N-(4-(4-amino-7-(4-((2-fluoropropyl)amino)cyclohex-1-en-1-yl)-1-isopropyl-1H-pyrazolo[4,3-c]pyridin-3-yl)-2-fluorophenyl)-2-chlorobenzenesulfonamide] |
| 7.89 | 8.89 |  | CC(C)n1nc(-c2ccc(NS(=O)(=O)Cc3ccccc3Cl)c(F)c2)c2c(N)ncc(C3=CCC(NC4CC(F)(F)C4)CC3)c21 (single isomer, unassigned) [Compound B48, N-(4-(4-amino-7-(4-((3,3-difluorocyclobutyl)amino)cyclohex-1-en-1-yl)-1-isopropyl-1H-pyrazolo[4,3-c]pyridin-3-yl)-2-fluorophenyl)-1-(2-chlorophenyl)methanesulfonamide] |
| 7.19 | 8.39 |  | CC(C)n1nc(-c2ccc(NS(=O)(=O)Cc3ccccc3Cl)c(F)c2)c2c(N)ncc(C3=CCC(NC4CC(F)(F)C4)CC3)c21 (single isomer, unassigned) [Compound B49, N-(4-(4-amino-7-(4-((3,3-difluorocyclobutyl)amino)cyclohex-1-en-1-yl)-1-isopropyl-1H-pyrazolo[4,3-c]pyridin-3-yl)-2-fluorophenyl)-1-(2-chlorophenyl)methanesulfonamide] |
| 7.60 | 8.30 |  | CC(C)n1nc(-c2ccc(NS(=O)(=O)c3ccccc3Cl)c(F)c2)c2c(N)ncc(C3=CCC(NC4CC(F)(F)C4)CC3)c21 (single isomer, unassigned) [Compound B50] |
| 6.72 | 7.51 |  | CC(C)n1nc(-c2ccc(NS(=O)(=O)c3ccccc3Cl)c(F)c2)c2c(N)ncc(C3=CCC(NC4CC(F)(F)C4)CC3)c21 (single isomer, unassigned) [Compound B51] |
| 8.01 | 8.11 |  | COCCNC1CC=C(c2cnc(N)c3c(-c4ccc(NS(=O)(=O)c5ccccc5Cl)c(F)c4)nn(C(C)C)c23)CC1 (single isomer, unassigned) [Compound B52, N-(4-(4-amino-1-isopropyl-7-(4-((2-methoxyethyl)amino)cyclohex-1-en-1-yl)-1H-pyrazolo[4,3-c]pyridin-3-yl)-2-fluorophenyl)-2-chlorobenzenesulfonamide] |
| 7.15 | 7.77 |  | COCCNC1CC=C(c2cnc(N)c3c(-c4ccc(NS(=O)(=O)c5ccccc5Cl)c(F)c4)nn(C(C)C)c23)CC1 (single isomer, unassigned) [Compound B53, N-(4-(4-amino-1-isopropyl-7-(4-((2-methoxyethyl)amino)cyclohex-1-en-1-yl)-1H-pyrazolo[4,3-c]pyridin-3-yl)-2-fluorophenyl)-2-chlorobenzenesulfonamide] |
| 7.55 | 8.70 |  | COCCNC1CC=C(c2cnc(N)c3c(-c4ccc(NS(=O)(=O)Cc5ccccc5Cl)c(F)c4)nn(C(C)C)c23)CC1 (single isomer, unassigned) [Compound B54, N-(4-(4-amino-1-isopropyl-7-(4-((2-methoxyethyl)amino)cyclohex-1-en-1-yl)-1H-pyrazolo[4,3-c]pyridin-3-yl)-2-fluorophenyl)-1-(2-chlorophenyl)methanesulfonamide] |
